{
  "source": "patent US8952024B2",
  "about": "“Herbicidal pyrimidone derivatives” (E I du Pont de Nemours and Company, priority 2009, dated 2015)",
  "format_in_all_cases": "in vivo",
  "key": {"[1]": {"test_system": "barnyardgrass (Echinochloa crus-galli)", "assay": "Test A pre-/postemergence plant response", "conditions": "Echinochloa crus-galli, 240 h, read-out: Plant response rating, Barnyardgrass; for pest or weed control at 125 g/ha: 125 g ai/ha; for pest or weed control at 500 g/ha: 500 g ai/ha, approx. ten days", "outline": "(§1)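 Formulated test chemicals (non-phytotoxic solvent, surfactant) were sprayed onto soil right after planting and simultaneously onto young plants at one to two leaves, 2 to 10 cm tall. Plants stayed in the greenhouse about ten days; injury was then visually scored against untreated controls, from 0 (no effect) to 100 (complete control).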"}, "corn (Zea mays)": {"test_system": "corn (Zea mays)", "assay": "Test A pre-/postemergence plant response", "conditions": "Zea mays, 240 h; for Corn plant response rating (crop injury, 0 = no effect, 100 = complete kill) at 125 g/ha: 125 g ai/ha; for Corn plant response rating (crop injury, 0 = no effect, 100 = complete kill) at 500 g/ha: 500 g ai/ha, approx. ten days", "outline": "as §1"}, "[2]": {"test_system": "giant foxtail (Setaria faberii)", "assay": "Test A pre-/postemergence plant response", "conditions": "Setaria faberi, 240 h, read-out: Plant response rating, Foxtail, Giant; for pest or weed control at 125 g/ha: 125 g ai/ha; for pest or weed control at 500 g/ha: 500 g ai/ha, approx. ten days", "outline": "as §1"}, "[3]": {"test_system": "large crabgrass (Digitaria sanguinalis)", "assay": "Test A pre-/postemergence plant response", "conditions": "Digitaria sanguinalis, 240 h, read-out: Plant response rating, Crabgrass, Large; for pest or weed control at 125 g/ha: 125 g ai/ha; for pest or weed control at 500 g/ha: 500 g ai/ha, approx. ten days", "outline": "as §1"}, "[4]": {"test_system": "morningglory (Ipomoea spp.)", "assay": "Test A pre-/postemergence plant response", "conditions": "Ipomoea, 240 h, read-out: Plant response rating, Morningglory; for pest or weed control at 125 g/ha: 125 g ai/ha; for pest or weed control at 500 g/ha: 500 g ai/ha, approx. ten days", "outline": "as §1"}, "[5]": {"test_system": "pigweed (Amaranthus retroflexus)", "assay": "Test A pre-/postemergence plant response", "conditions": "Amaranthus retroflexus, 240 h, read-out: Plant response rating, Pigweed; for pest or weed control at 125 g/ha: 125 g ai/ha; for pest or weed control at 500 g/ha: 500 g ai/ha, approx. ten days", "outline": "as §1"}, "[6]": {"test_system": "velvetleaf (Abutilon theophrasti)", "assay": "Test A pre-/postemergence plant response", "conditions": "Abutilon theophrasti, 240 h, read-out: Plant response rating, Velvetleaf; for pest or weed control at 125 g/ha: 125 g ai/ha; for pest or weed control at 500 g/ha: 500 g ai/ha, approx. ten days", "outline": "as §1"}, "[7]": {"test_system": "wheat (Triticum aestivum)", "assay": "Test A pre-/postemergence plant response", "conditions": "Triticum aestivum, 240 h, read-out: Plant response rating, Wheat; for plant injury at 125 g/ha: 125 g ai/ha; for plant injury at 500 g/ha: 500 g ai/ha, approx. ten days", "outline": "as §1"}, "[8]": {"test_system": "cocklebur (Xanthium strumarium)", "assay": "Test B pre-/postemergence plant response", "from_the_text": "(§2) Seeds of plant species selected from blackgrass (Alopecurus myosuroides), downy bromegrass (Bromus tectorum), green foxtail (Setaria viridis), Italian ryegrass (Lolium multiflorum), wheat (Triticum aestivum), wild oat (Avena fatua), deadnettle (henbit deadnettle, Lamium amplexicaule), galium (catchweed bedstraw, Galium aparine), bermudagrass (Cynodon dactylon), Surinam grass (Brachiaria decumbens), cocklebur (Xanthium strumarium), corn (Zea mays), large crabgrass (Digitaria sanguinalis), woolly cupgrass (Eriochloa villosa), giant foxtail (Setaria faberii), goosegrass (Eleusine indica), johnsongrass (Sorghum halepense), kochia (Kochia scoparia), lambsquarters (Chenopodium album), morningglory (Ipomoea coccinea), nightshade (eastern black nightshade, Solanum ptycanthum), yellow nutsedge (Cyperus esculentus), pigweed (Amaranthus retroflexus), ragweed (common ragweed, Ambrosia elatior), Russian thistle (Salsola kali), soybean (Glycine max), sunflower (common oilseed sunflower, Helianthus annuus) and velvetleaf (Abutilon theophrasti) were planted into a blend of loam soil and sand and treated preemergence with test compounds formulated in a non-phytotoxic solvent mixture which included a surfactant.\n(§3) At the same time, plants selected from these crop and weed species and also winter barley (Hordeum vulgare), canarygrass (Phalaris minor), chickweed (Stellaria media) and windgrass (Apera spica-venti) were planted in pots containing Redi-Earth® planting medium (Scotts Company, 14111 Scottslawn Road, Marysville, Ohio 43041) comprising spaghnum peat moss, vermiculite, wetting agent and starter nutrients and treated with postemergence applications of some of the test chemicals formulated in the same manner. Plants ranged in height from 2 to 18 cm (1- to 4-leaf stage) for postemergence treatments.\n(§4) Treated plants and controls were maintained in a greenhouse for 13 to 15 days, after which time all treated plants were visually evaluated and compared to controls. Plant response ratings, summarized in Table B, are based on a scale of 0 to 100 where 0 is no effect and 100 is complete control. A dash (-) response means no test result."}, "[9]": {"test_system": "giant foxtail (Setaria faberii)", "assay": "Test B pre-/postemergence plant response", "from_the_text": "as §2, §3, §4"}, "[10]": {"test_system": "green foxtail (Setaria viridis)", "assay": "Test B pre-/postemergence plant response", "from_the_text": "as §2, §3, §4"}, "[11]": {"conditions": "post-emergence, Postemergence, 0 to 100 scale where 0 is no effect and 100 is complete control"}, "[12]": {"conditions": "post-emergence, Postemergence, 0 to 100 scale, 0 = no effect, 100 = complete control"}, "[13]": {"conditions": "pre-emergence, Preemergence, 0 to 100 scale, 0 = no effect, 100 = complete control"}, "[14]": {"conditions": "pre-emergence, Preemergence, visual injury, 0 to 100 scale (0 no effect, 100 complete control)"}, "[15]": {"conditions": "62 g ai/ha, postemergence, 0 is no effect, 100 is complete control, 13 to 15 days"}},
  "note": "Like-named read-outs stand apart in the source and are kept apart here.",
  "data": [
    {"smiles": "COCCn1c(-c2ccsc2)ncc(C(=O)C2=C(O)CCCC2=O)c1=O", "note": "[Compound 97, 5-[(2-hydroxy-6-oxo-1-cyclohexen-1-yl)carbonyl]-3-(2-methoxyethyl)-2-(3-thienyl)-4(3H)-pyrimidinone]", "values": [
      {"measurement": "pest or weed control at 125 g/ha", "setting": "[1]; [11]", "value": 90, "unit": "%"},
      {"measurement": "pest or weed control at 500 g/ha", "setting": "[1]; [12]", "value": 90, "unit": "%"},
      {"measurement": "pest or weed control at 125 g/ha", "setting": "[1]; [13]", "value": 60, "unit": "%"},
      {"measurement": "pest or weed control at 500 g/ha", "setting": "[1]; [14]", "value": 100, "unit": "%"},
      {"measurement": "Corn plant response rating (crop injury, 0 = no effect, 100 = complete kill) at 125 g/ha", "setting": "corn (Zea mays); [11]", "value": 50, "unit": "%"},
      {"measurement": "Corn plant response rating (crop injury, 0 = no effect, 100 = complete kill) at 500 g/ha", "setting": "corn (Zea mays); [12]", "value": 80, "unit": "%"},
      {"measurement": "Corn plant response rating (crop injury, 0 = no effect, 100 = complete kill) at 125 g/ha", "setting": "corn (Zea mays); [13]", "value": 0, "unit": "%"},
      {"measurement": "Corn plant response rating (crop injury, 0 = no effect, 100 = complete kill) at 500 g/ha", "setting": "corn (Zea mays); [14]", "value": 0, "unit": "%"},
      {"measurement": "pest or weed control at 125 g/ha", "setting": "[2]; [11]", "value": 60, "unit": "%"},
      {"measurement": "pest or weed control at 500 g/ha", "setting": "[2]; [12]", "value": 80, "unit": "%"},
      {"measurement": "pest or weed control at 125 g/ha", "setting": "[2]; [13]", "value": 60, "unit": "%"},
      {"measurement": "pest or weed control at 500 g/ha", "setting": "[2]; [14]", "value": 90, "unit": "%"},
      {"measurement": "pest or weed control at 125 g/ha", "setting": "[3]; [11]", "value": 80, "unit": "%"},
      {"measurement": "pest or weed control at 500 g/ha", "setting": "[3]; [12]", "value": 100, "unit": "%"},
      {"measurement": "pest or weed control at 125 g/ha", "setting": "[3]; [13]", "value": 100, "unit": "%"},
      {"measurement": "pest or weed control at 500 g/ha", "setting": "[3]; [14]", "value": 100, "unit": "%"},
      {"measurement": "pest or weed control at 125 g/ha", "setting": "[4]; [11]", "value": 100, "unit": "%"},
      {"measurement": "pest or weed control at 500 g/ha", "setting": "[4]; [12]", "value": 100, "unit": "%"},
      {"measurement": "pest or weed control at 125 g/ha", "setting": "[4]; [13]", "value": 70, "unit": "%"},
      {"measurement": "pest or weed control at 500 g/ha", "setting": "[4]; [14]", "value": 80, "unit": "%"},
      {"measurement": "pest or weed control at 125 g/ha", "setting": "[5]; [11]", "value": 100, "unit": "%"},
      {"measurement": "pest or weed control at 500 g/ha", "setting": "[5]; [12]", "value": 100, "unit": "%"},
      {"measurement": "pest or weed control at 125 g/ha", "setting": "[5]; [13]", "value": 100, "unit": "%"},
      {"measurement": "pest or weed control at 500 g/ha", "setting": "[5]; [14]", "value": 100, "unit": "%"},
      {"measurement": "pest or weed control at 125 g/ha", "setting": "[6]; [11]", "value": 100, "unit": "%"},
      {"measurement": "pest or weed control at 500 g/ha", "setting": "[6]; [12]", "value": 100, "unit": "%"},
      {"measurement": "pest or weed control at 125 g/ha", "setting": "[6]; [13]", "value": 100, "unit": "%"},
      {"measurement": "pest or weed control at 500 g/ha", "setting": "[6]; [14]", "value": 100, "unit": "%"},
      {"measurement": "plant injury at 125 g/ha", "setting": "[7]; [11]", "value": 0, "unit": "%"},
      {"measurement": "plant injury at 500 g/ha", "setting": "[7]; [12]", "value": 20, "unit": "%"},
      {"measurement": "plant injury at 125 g/ha", "setting": "[7]; [13]", "value": 0, "unit": "%"},
      {"measurement": "plant injury at 500 g/ha", "setting": "[7]; [14]", "value": 0, "unit": "%"},
      {"measurement": "Cocklebur plant response rating (0 to 100 scale)", "setting": "[8]; [15]", "value": 100},
      {"measurement": "pest or weed control at 31 g/ha", "setting": "[8]; Xanthium strumarium, post-emergence, 31 g ai/ha, postemergence, scale 0 to 100, 0 is no effect, 100 is complete control, read-out: Plant response rating, Cocklebur", "value": 95, "unit": "%"},
      {"measurement": "pest or weed control at 125 g/ha", "setting": "[8]; Xanthium strumarium, post-emergence, Postemergence, 125 g ai/ha, visual rating after 13 to 15 days, scale 0 (no effect) to 100 (complete control)", "value": 100, "unit": "%"},
      {"measurement": "pest or weed control at 250 g/ha", "setting": "[8]; Xanthium strumarium, post-emergence, Postemergence, 250 g ai/ha, scale 0 to 100 (0 no effect, 100 complete control), read-out: Plant response rating, Cocklebur", "value": 100, "unit": "%"},
      {"measurement": "Foxtail, Giant plant response rating (0 to 100 scale)", "setting": "[9]; [15]", "value": 75},
      {"measurement": "pest or weed control at 31 g/ha", "setting": "[9]; Setaria faberi, post-emergence, 31 g ai/ha, postemergence, scale 0 to 100, 0 is no effect, 100 is complete control, read-out: Plant response rating, Foxtail, Giant", "value": 60, "unit": "%"},
      {"measurement": "pest or weed control at 250 g/ha", "setting": "[9]; Setaria faberi, post-emergence, Postemergence, 250 g ai/ha, scale 0 to 100 (0 no effect, 100 complete control), read-out: Plant response rating, Foxtail, Giant", "value": 90, "unit": "%"},
      {"measurement": "Foxtail, Green plant response rating (0 to 100 scale)", "setting": "[10]; [15]", "value": 85},
      {"measurement": "pest or weed control at 31 g/ha", "setting": "[10]; Setaria viridis, post-emergence, 31 g ai/ha, postemergence, scale 0 to 100, 0 is no effect, 100 is complete control, read-out: Plant response rating, Foxtail, Green", "value": 40, "unit": "%"},
      {"measurement": "pest or weed control at 250 g/ha", "setting": "[10]; Setaria viridis, post-emergence, Postemergence, 250 g ai/ha, scale 0 to 100 (0 no effect, 100 complete control), read-out: Plant response rating, Foxtail, Green", "value": 95, "unit": "%"}
    ]}
  ]
}
